According to US10501434B2, “Configurational stereoisomer of difethialone, composition and rodenticidal bait comprising same, and process for controlling target rodent pests” (priority 2015, dated 2019):

Type: in vivo, rat
Conditions: liver of rats which died between D9 and D10 after consuming the 11.8 ppm bait
Description: The acetonitrile solution containing difethialone is analysed by high-pressure liquid chromatography on a LUX® Cellulose-3 chiral column (Phenomenex, Le Pecq, France) (150×2 mm, particle size of 3 μm) as described in point A2) above.
The values, expressed as micrograms of laevorotatory enantiomer of said hetero-stereoisomer (“DFN-Hetero-laevo”) per gram of liver, are given in table 3 below.

## O=c1sc2ccccc2c(O)c1C1CC(c2ccc(-c3ccc(Br)cc3)cc2)Cc2ccccc21 (stereo not shown) [Total difethialone, 3-(4′-bromobiphenyl-4-yl)-1-(4-hydroxythiocoumarin-3-yl)-1,2,3,4-tetrahydronaphthalene]
  Hepatic content, Mean: 11.3 µg/g
